Values quoted from earlier work in patent publication EP4368198A1, “COMPOSITION FOR DELIVERING A PROTEIN OR A POLYPEPTIDE TO A EUKARYOTIC CELL” (Klinikum der Universität München, priority 2022, dated 2024).

Settings: normalized, most hydrophobic residue 100, glycine 0, Monera et al. 1995

hydrophobicity index At pH 7: -46 (used pH 2)
SMILES: O=C(O)[C@@H]1CCCN1 [Proline (pro), Proline]
